Where two headings read alike, the source gives them in different places.
Experiments:
[1] = tested on: tau phosphorylation in 4R0N tau overexpressing H4 neuroglioma cells; assay: Cell culture tau assay: western for total and phosphorylated tau after 96 h compound treatment; assay type: cell-based; settings: for 12E8 % Control pTau/Total / pS396 % Control pTau/Total / pT231 % Control pTau/Total: normalized to total tau
Method: 4R0N tau overexpressing H4 neuroglioma cells were maintained in Dulbecco's Modified Eagle Medium (Invitrogen) supplemented with 10% fetal bovine serum (Invitrogen), 1% penicillin-streptomycin, geneticin (0.25 mg/ml), and 2 mM L-Glutamine (Invitrogen). Cells were maintained by splitting 1∶10 at 90% confluency. Prior to any experimentation, cells were 70–75% confluent to ensure cells were in their active growth phase. To test effects of DYRK1A knockdown on tau phosphorylation, cells were transfected with DYRK1A siRNA. Prior to treating cells with DYRK1A siRNA, siRNA was first complexed with siLentfect lipid transfection reagent (Bio-Rad) and reduced serum medium (Invitrogen) using a 6 well plate format. The final effective siRNA molarity used was 22.85 nM per well. Cells were grown for 96 hours at 37°C, 5% CO2. Cell lysates were prepared using the Complete Lysis-M, EDTA-free kit (Roche Applied Science) and total protein concentration was quantified using the BCA protein assay (Pierce). Westerns for the multiple forms of tau were performed as described below.
For all cell-based experiments, including siRNA treatments and compound treatments, cells were treated for 96 hours at 37°C, with 5% CO2. Cell lysates were then prepared using the Complete Lysis-M, EDTA-free kit (Roche Applied Science) supplemented with phosphatase inhibitor cocktails 1 and 2 (Sigma). Lysates were quantified using the BCA protein assay (Pierce). Protein from lysates (30 µg total protein per lane) was separated on SDS-PAGE gels and transferred to nitrocellulose membrane. Membranes were blocked in 5% blocking solution for one hour at room temperature (RT). Blocking buffer solution used for detection of non phosphorylated protein contained 5% Non-fat dry milk in 1×-TBS-T (50 mM Tris-HCl pH 7.4, 137 mM […], 2.7 mM KCl, 0.1% Tween). For detection of phosphorylated protein, blocking buffer solution contained 5% Bovine Serum Albumin in 1× TBS-T. Membranes were probed with primary antibody (various dilutions depending on the epitope – see below) in blocking buffer overnight at 4°C on a rocker. Membranes were subsequently washed with 1× TBS-T and probed with secondary antibody in blocking buffer for forty-five minutes using a 1∶25,000 dilution of HRP-GAM or HRP-GAR (Jackson Immunoresearch), depending on the species (mouse or rabbit) in which the primary antibodies were raised. Following incubation with secondary antibody, membranes were washed in 1× TBS-T and developed with Super Signal West Femto Maximum Sensitivity Substrate Kit ([…]) and digitally imaged. Protein band signal saturation was assessed before any further analysis of multiple forms of tau. Alpha Innotech Fluoro Chem SF imaging software verifies degrees of saturation when signal intensity is beyond the dynamic range (which is from 0–65,535). Protein band signal intensities used for quantification were within the instrument's dynamic range.
To test multiple primary antibodies, membranes were stripped for 15 minutes at RT using ReBlot Plus Mild Antibody Stripping Solution (Millipore). Membranes were then washed for 5 minutes in 1× TBS-T and blocked for one hour in 5% blocking solution at RT. For verification of protein loading, membranes were reprobed overnight at 4°C with an anti-Tubulin primary antibody (1∶1000 dilution; Cell Signaling). Primary antibodies used for detection included anti-tau (1∶2000 dilution; Dako), 12E8 tau (1∶7500 dilution; Peter Seubert, Elan Pharmaceuticals), pT231 tau (1∶1000 dilution; Abcam), pS396 tau (1∶5000 dilution; Abcam), and anti-DYRK1A (1∶500 dilution; Santa Cruz).
Cells undergoing any treatment, including β-carboline derivative dosing and siRNA treatment, were maintained in Dulbecco's Modified Eagle Medium (Invitrogen) supplemented with 10% fetal bovine serum (Invitrogen) and 2 mM L-Glutamine (Invitrogen). Viability assays were performed using a 96-well pate format. […]

recombinant human DYRK1A = target: T1, recombinant human DYRK1A (Homo sapiens, UniProt Q13627); assay: In vitro kinase assay: DYRK1A catalyzed direct phosphorylation of recombinant tau on serine 396 (western); assay type: biochemical; settings: for IC50: recombinant DYRK1A + 4R2N tau, 1 mM ATP
T1 construct: purchased Invitrogen

DYRK1A = tested on: DYRK1A; design: method as in PMID 17850214; settings: synthetic peptide substrate; read-out: IC50 against DYRK1A; cited from earlier work
[2] = alamar Blue viability (toxicity) assay; assay type: cell-based; settings: human; H4 neuroglioma cells, drug renewed every 24 h for four days; read-out: IC50 for viability (concentration resulting in 50% cell viability)
Method: Cells undergoing any treatment, including β-carboline derivative dosing and siRNA treatment, were maintained in Dulbecco's Modified Eagle Medium (Invitrogen) supplemented with 10% fetal bovine serum (Invitrogen) and 2 mM L-Glutamine (Invitrogen). Viability assays were performed using a 96-well pate format. Metabolic activity was measured 12 hours after the addition of 10% alamar Blue (Invitrogen) directly to attached cells in full medium. This assay was based on the ability of metabolically active cells to convert alamar Blue reagent into a fluorescent signal proportional to innate metabolic activity. Once the ideal IC50 value for viability was identified, effects on multiple forms of tau were investigated after treating with the β-carbolines indicated in Table S1 using the larger 6 well plate format. For both the viability assay and cell culture tau assays, cell culture media was removed and cells were treated with freshly made drug in new media every 24 hours for four days. For cell culture tau assays, protein lysates were prepared after 96 hours of treatment. All compounds were solubilized in dimethylsulfoxide (DMSO), diluted in growth medium to their respective 0.01 µM, 0.1 µM, 1 µM and 10 µM final working dilutions and added directly to cultured cells. The final DMSO percentage in culture for all compounds and concentrations tested was 0.1%. […]

MAO-A = tested on: MAO-A; design: method as in PMID 18980841; settings: read-out: IC50 against MAO-A; cited from earlier work
[3] = read-out: IC50 for inhibition of DYRK1A dependent tau phosphorylation at serine 396
[4] = 30 min 30C, read-out: IC50 for inhibition of DYRK1A dependent tau phosphorylation at serine 396 (pS396)

CCn1c2cc(OC)ccc2c2ccnc(C)c21 [9-ethylharmine]
Concentration at which tau levels were significantly reduced (p<0.05) ([1]; H4-tau cells, 96 h): 1 µM
Reduction of IC50 relative to harmine (recombinant human DYRK1A; pS396 in vitro phosphorylation, ethyl group on N-9 vs harmine): ~2 fold
IC50 (recombinant human DYRK1A; [3]): 0.4 µM

COc1ccc2c3c([nH]c2c1)C(C)=NCC3 [Harmaline, harmaline]
IC50 (recombinant human DYRK1A; [4]): 9 µM

Cc1nccc2c1[nH]c1ccccc12 [Harmane, harmane]
IC50 (recombinant human DYRK1A; [4]): 15 µM

COc1ccc2c(c1)[nH]c1c(C)nccc12 [Harmine]
12E8 (pS262/pS356) tau % Control ([1]; 8 µM, 96 h, H4-tau cells): 32 ± 7 % Control
Total Tau % Control ([1]; 8 µM, 96 h, H4-tau cells): 55 ± 9 % Control
pS396 tau % Control ([1]; 8 µM, 96 h, H4-tau cells): 49 ± 8 % Control
pT231 tau % Control ([1]; 8 µM, 96 h, H4-tau cells): 24 ± 6 % Control
12E8 % Control pTau/Total ([1]; 8 µM, 96 h): 58 ± 6 % Control
pS396 % Control pTau/Total ([1]; 8 µM, 96 h): 89 ± 7 % Control
pT231 % Control pTau/Total ([1]; 8 µM, 96 h): 44 ± 5 % Control
12E8 % Control pTau/Total ([1]; 8 µM, 96 h, listed as harmine): 58 % Control
pT231 % Control pTau/Total ([1]; 8 µM, 96 h, listed as harmine): 44 % Control
IC50 at 4 days [2]: 12 µM

Cc1[nH]ccc2c1[nH]c1cc(=O)ccc12 [Harmol, harmol]
IC50 (recombinant human DYRK1A; [3]): 0.09 µM

O=C(NCCN1CCOCC1)c1ccc(Cl)cc1 [Moclobemide]
12E8 (pS262/pS356) tau % Control ([1]; 500 µM (highest concentration), 96 h): 116 ± 10 % Control
Total Tau % Control ([1]; 500 µM, 96 h): 103 ± 7 % Control
pS396 tau % Control ([1]; 500 µM, 96 h): 98 ± 9 % Control
pT231 tau % Control ([1]; 500 µM, 96 h): 118 ± 13 % Control
12E8 % Control pTau/Total ([1]; 500 µM): 112 ± 8 % Control
pS396 % Control pTau/Total ([1]; 500 µM): 95 ± 9 % Control
pT231 % Control pTau/Total ([1]; 500 µM): 114 ± 12 % Control
Effect on levels of total tau or specific phosphorylated forms of tau ([1]; doses up to 500 µM): did not reduce
IC50 (MAO-A): 3.9 µM

c1ccc2c(c1)[nH]c1cnccc12 [Norharmane, norharmane]
IC50 (recombinant human DYRK1A; [4]): 45 µM

From article PMC3089604 (PLoS ONE, 2011)
